Patent publication US12605350B2, “Composition for preventing, ameliorating, or treating disease caused by nitration of tyrosine in proteins comprising tyrosine as effective component” (INDUSTRY-ACADEMIC COOPERATION FOUNDATION GYEONGSANG …, priority 2020, dated 2026)
“Also recorded” adds a separate entry of the source.

Experiments:
[1] = test system: high-fat diet mouse model of type 2 diabetes; test: ROS/RNS amount in plasma, high-fat diet model; type: in vivo; details: HFD+L-Tyr vs HFD
Procedure: Twenty-seven C57BL/6 male mice (3-week old) were acclimated to the breeding condition for 1 week. […] Blood glucose was measured every week.
Mouse was anesthetized with avertin, and blood was collected from a heart. After the reaction with EDTA in a vacucontainer, the blood was centrifuged for 15 minutes at 1,500×g, 4° C. to separate plasma. According to heart perfusion with PBS and 4% paraformaldehyde (PFA), tissue fixation was carried out. Then, each tissue was harvested and stored in PFA.
After 3-fold dilution of the plasma in PBS, concentration of reactive oxygen/reactive nitrogen (ROS/RNS) in plasma was measured using Oxiselect ROS/RNS assay kit (Cell Biolabs) according to the recommended experimental protocol.

human recombinant MnSOD = biological target: T1, human recombinant MnSOD (Homo sapiens, UniProt P04179); test: SOD activity of human recombinant MnSOD treated with peroxynitrite; type: biochemical; details: human recombinant MnSOD with peroxynitrite (2.1 mM PN), 10 minutes on ice
T1 sequence (P04179 25-222): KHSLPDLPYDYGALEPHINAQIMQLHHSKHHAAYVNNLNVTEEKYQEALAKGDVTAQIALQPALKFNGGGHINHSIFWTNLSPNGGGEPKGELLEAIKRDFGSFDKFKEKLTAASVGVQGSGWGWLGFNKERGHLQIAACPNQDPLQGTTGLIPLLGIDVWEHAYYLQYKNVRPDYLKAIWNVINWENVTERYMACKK
Procedure: Peroxynitrite was diluted by 40 times with 0.3 M NaOH, and absorbance at 302 nm was measured. Then, it was quantified by using the molar absorption coefficient of peroxynitrite) (ε302=1670 M^−1 cm^−1).
For the measurement of SOD activity, SOD colorimetric activity kit by ThermoFisher was used. Human recombinant MnSOD within reference SOD range, peptide, and peroxynitrite were admixed with one another, and the reaction was allowed to occur on ice for 10 minutes. To a 96-well plate, 10 μl of reference SOD or the reaction mixture, and 50 μl of a substrate solution provided in the kit were added, and the absorbance at 450 nm was measured. After adding 25μl of xanthine oxidase provided in the kit and allowing the reaction to occur for 20 minutes at room temperature, absorbance at 450 nm was measured. By using the data obtained by subtracting the first-measured absorbance from the second-measured absorbance, SOD activity was obtained.

IL-1β = IL-1β gene expression in kidney tissues (quantitative real-time PCR), renal ischemia and reperfusion; type: in vivo, mouse; details: L-tyrosine 100 mg/kg oral once a day for 4 days, 24 hours after ischemia and reperfusion
Procedure: C57BL/6 male mouse (23 to 25 g, KOATECH, South Korea) was allowed to have free access to diets and water in sterile breeding room with constant temperature and humidity. The animals were divided into 3 test groups, i.e., 1) Control group (Sham), 2) Renal ischemia having treatment with prepared solvent and induced reperfusion group (CMC+IR), and 3) Renal ischemia having treatment with L-tyrosine and induced reperfusion group (L-Tyr+IR).
L-Tyrosine (100 mg/kg) was suspended in 0.5% CMC (carboxymethyl cellulose). The animal was orally administered, once a day for 4 days, with L-tyrosine or the prepared solvent CMC. Thirty minutes after the oral administration on Day 4, renal ischemia was caused. Specifically, the animal abdomen was cut and renal pedicles at both sides were clamped using a Muller atraumatic vascular clamp to cause renal ischemia. After 25 minutes of blood ischemia, the clamp was removed followed by reperfusion. The control group (Sham) received the same operational procedures as above except the ischemia using clamp. […]
According to Trizol method, total RNA was extracted from kidney tissues, and cDNA was synthesized by using Revert Aid Reverse Transcription System (ThermoFisher). Quantitative PCR was carried out with CFX Connect Real-Time PCR system (Bio-Rad) by using iQ SYBR Green Super mix (Bio-Rad). […]

[2] = test system: chronic immobilization stress group (STR); test: amount of glutamate, glutamine, tyrosine and GABA in PFC by LC-MS/MS; type: in vivo, mouse; details: stress group fed tyrosine diet, vs normal group
Excerpt: The Amount of amino acids (glutamate, glutamine, tyrosine) and GABA in the PFC was quantified by liquid chromatography analysis (LC-MS/MS). PFC tissues were lysed first, and the tissue supernatant was collected and diluted with internal reference (L-Glu-d5) and mobile phase. The diluted sample was divided into 5 samples and injected to LC-MS/MS system (Agilent 6460). As for the column, SeQuant ZIC®-HILIC column (2.1×100 mm, 3.5 μm, 100 Å) was used, and, as a mobile phase, acetonitrile containing 0.1% formic acid was used, and the separation was made by using concentration gradient. For detecting the amino acids, multiple reaction monitoring and detection method was employed (m/z of Glu: 148→84, m/z of Gln: 147→84, m/z of GABA: 104→87, and m/z of internal reference: 153→88).

[3] = test system: mouse model of epileptic seizure which has been induced to have seizure by kainic acid; test: epileptic seizure induced by kainic acid: seizure level, bodyweight, survival
Procedure: Kainic acid (KA, Abcam) was dissolved in physiological saline in hot water bath to prepare 9 mg/ml kainic acid solution. After intraperitoneal injection of kainic acid (30 mg/kg), severity level and symptoms of seizure were recorded for 2 hours. Severity level of seizure was decided based on the criteria given in the following Table 2, and also the bodyweight was measured before and 24 hours after the injection of kainic acid, and then the results are compared to each other.

[4] = test system: glutamine synthetase (GS); test: activity of glutamine synthetase (GS) in hippocampus lysate after kainic acid; type: in vivo; details: mouse survived after kainic acid, tyrosine diet vs ND/control
Procedure: To a 96-well plate, 2 μl of hippocampus lysate were added, and then adjusted to 50 μl by additionally adding 50 mM imidazole-HCl buffer solution (pH 6.8). After adding 50 μl of GS activity assay buffer solution (50 mM imidazole-HCl, pH 6.8, 25 mM L-glutamine, 12.5 mM hydroxylamine, 12.5 mM sodium arsenate, 1 mM MnCl2 and 0.08 mM ADP), the reaction was allowed to occur at 37° C. for 30 to 60 minutes.
Upon the completion of the reaction, γ-glutamylhydroxamate as a reference material was added to an empty well such that it is present at a concentration of between 0.391 and 25.0 mM. To the sample and reference material, 100 μl of reaction termination solution (90 mM FeCl3, 1.8 N HCl and 1.45% (w/v) trichloroacetic acid) were added and absorbance at a wavelength of 560 nm was measured.
Based on comparison with standard curve, GS activity was obtained for each sample. GS activity was expressed in terms of the production amount of γ-glutamylhydroxamate as a final product with unit of μM/min/μg of protein.

SMILES	plasma ROS/RNS level [1]	MnSOD (SOD) activity (human recombinant MnSOD)	gene expression of IL-1β in kidney tissues (IL-1β)	amount of GABA in PFC [2]	amount of glutamate in PFC [2]	amount of glutamine in PFC [2]	amount of tyrosine in PFC [2]	plasma ROS/RNS level ([1]; listed as Tyr)	severity of seizure ([3]; ICR mouse, L-Tyr diet 181, 543 or 905 mg/kg for 1 week, kainic acid 30 mg/kg i.p., 2 hours)	mouse death ([3]; depending on intake amount of tyrosine, kainic acid 30 mg/kg i.p.)	survival ([3]; diet with feeds containing tyrosine 900 mg/kg (actual intake amount))	MnSOD (SOD) activity (human recombinant MnSOD; listed as Tyr)	GS activity in hippocampal tissues [4]
N[C@@H](Cc1ccc(O)cc1)C(=O)O [L-tyrosine]	statistically significant decrease in plasma ROS/RNS level	higher MnSOD activity	suppressed	–	–	–	–	–	–	–	–	–	–
N[C@@H](Cc1ccc(O)cc1)C(=O)O [tyrosine]	–	–	–	higher than the amount level of the normal group	higher than the amount level of the normal group	higher than the amount level of the normal group	higher than the amount level of the normal group	statistically significant decrease in tissue weight and ROS/RNS amount in plasma	severity of seizure is gradually reduced depending on tyrosine amount	improvement in mouse death was also observed depending on intake amount of tyrosine	all of the mice have survived	SOD activity can be maintained	the same or higher than the control group; also recorded: statistically significant increase in GS activity
